Test results reported in EP1891957A1 (Sloan-Kettering Institute for Cancer Research, priority 1996, dated 1998).
Values joined by “and” are separate entries in the source; they are usually repeats but may differ in a detail not shown here. Equal entries are not always repeated. Where two headings read alike, the source gives them in different places.

Assays:
[1] = tested on: human MX-1 mammary carcinoma; experiment: Xenografts of human MX-1 mammary carcinoma in nude mice; conditions: MX-1 xenograft; for Average Tumor Diameter (mm): nude mice, once a day for five days starting three days after implantation, 10-propargyl-10dAM 3 mg/kg, MTX 2 mg/kg, EDX 1.5 mg/kg, measured 14 days after start of treatment; for Complete Regressions: mice with no measurable tumor 14 days after start of treatment / mice treated; for Complete Regressions / Cures: same doses; for Cures: tumor free mice three weeks after cessation of therapy / mice treated
human LX-1 lung cancer = conditions: LX-1 xenograft, schedule and doses as Example 2; for Average Tumor Diameter (mm): nude mice
human A549 lung cancer = conditions: A549 xenograft, schedule and doses as Example 2; for Average Tumor Diameter (mm): nude mice
Source text: Example 2 was repeated using xenografts of human A549 lung cancer in nude mice.

ZR-75-1 = experiment: Cytotoxicity, 3 hour pulse-exposure, ZR-75-1; conditions: Homo sapiens, ZR-75-1, 3 h
SKLC-16 = experiment: Cytotoxicity, 3 hour pulse-exposure, SKLC-16; conditions: Homo sapiens
SK-BRIII = experiment: Cytotoxicity, 3 hour pulse-exposure, SK-BRIII; conditions: Homo sapiens
MDA468 = experiment: Cytotoxicity, 3 hour pulse-exposure, MDA468; conditions: Homo sapiens
in vivo [2] = conditions: rat, iv
[3] = dogs, 3 mg/kg i.v.
in vivo [4] = conditions: dog, iv

With CN(Cc1cnc2nc(N)nc(N)c2n1)c1ccc(C(=O)N[C@@H](CCC(=O)O)C(=O)O)cc1 [MTX, methotrexate] the “Average Tumor Diameter (mm)” value [1] was 7.6 ± 0.8 mm, the “Complete Regressions” value [1] was “no regressions and 0/10” and the Cures [1] was 0/10. The “Average Tumor Diameter (mm)” value (human LX-1 lung cancer) was 9.2 ± 2 mm, the “Complete Regressions” value (human LX-1 lung cancer) was 0/10 and the Cures (human LX-1 lung cancer) was 0/10. The “Average Tumor Diameter (mm)” value (human A549 lung cancer) was 8.3 ± 2 mm, the “Complete Regressions” value (human A549 lung cancer) was 0/5 and the Cures (human A549 lung cancer) was 0/5.

In the case of CCC(Cc1cnc2nc(N)nc(N)c2n1)c1ccc(C(=O)N[C@@H](CCC(=O)O)C(=O)O)cc1 (stereo partly drawn) [EDX, edatrexate], the IC50 (ZR-75-1) is reported as 860 ± 100 nM, the IC50 (SKLC-16) is reported as 260 ± 30 nM and the “Average Tumor Diameter (mm)” value [1] is reported as 2.2 ± 1.1 mm. The “Complete Regressions” value [1] was 6/20, the Cures [1] was 2/20 and the IC50 (SK-BRIII) was 990 ± 150 nM. The “Average Tumor Diameter (mm)” value (human LX-1 lung cancer) was 4.3 ± 2 mm, the “Complete Regressions” value (human LX-1 lung cancer) was 3/10 and the Cures (human LX-1 lung cancer) was 1/10. The “Average Tumor Diameter (mm)” value (human A549 lung cancer) was 6.8 ± 2 mm, the “Complete Regressions” value (human A549 lung cancer) was 0/5 and the Cures (human A549 lung cancer) was 0/5. For the same molecule, the IC50 (MDA468) was 380 ± 50 nM.

In the case of C#CCC(Cc1cnc2nc(N)nc(N)c2n1)c1ccc(C(=O)N[C@@H](CCC(=O)O)C(=O)O)cc1 (stereo partly drawn) [10-propargyl-10dAM, 10-Propargyl-10-deazaaminopterin], the animals died (CD rats; 100 mg/kg i.v. QWX3, by day 23) is reported as “one out of the five”, the rats died (CD rats; 150 mg/kg i.v. QWX3, days 18, 20 and 23) is reported as “three out of the five” and the rats died (CD rats; 200 mg/kg i.v. QWX3, days 12, 14, 15, 20 and 20) is reported as “all five”. The rats died (CD rats; 300 mg/kg i.v. QWX3, days 11, 11, 12, 12 and 14) was “all five”, the LD10 (CD rats; i.v. QWX3, conservative estimate, median-effect plot) was “about 75 mg/kg” and the mice died (B6D2F1 mice; 400 mg/kg i.p. QWX3, days 19, 20, 23 and 24) was “four out of five”. For the same molecule, the mice died (B6D2F1 mice; 600 mg/kg i.p. QWX3, days 9, 18, 19 and 21) was “four out of five”, the LD50 (in vivo [2]) was about 110 mg/kg and the “metabolite (retention time 6.3 min) as part of the total urinary 10-propargyl-10dAM” value ([3]; urine at 1 hr) was under 0.31%. The “metabolite (retention time 6.3 min) as part of the total urinary 10-propargyl-10dAM” value ([3]; urine at 4 hr) was under 3.5% and the LD50 (in vivo [4]) was about 8 mg/kg.
